Measured values published in patent US12624044B2, “SMARCA degraders and uses thereof” (Kymera Therapeutics, Inc., priority 2019, dated 2026).

How the values were obtained:
Assay type in all cases: cell-based
[1] = target: T1, SMARCA4 (Homo sapiens, UniProt P51532); assay: SMARCA4 Western blot MV4-11 degradation; settings: for SMARCA4 WB MV411 degradation 24 h: Average Dmax % / DC50: MV4-11 cells; for DC50 / Dmax: 24 h; for DC50: read-out: SMARCA4 WB MV411 degradation 24 h: Average external-Abs DC50; for Dmax: MV4-11, MV4-11 cells, read-out: SMARCA4 WB MV411 degradation 24 h: Average Dmax %
T1 construct: SMARCA2 and SMARCA4 protein degradation in MV4-11 cells; endogenous in cells; host or cells: MV4-11
T1 sequence (P51532 whole entry): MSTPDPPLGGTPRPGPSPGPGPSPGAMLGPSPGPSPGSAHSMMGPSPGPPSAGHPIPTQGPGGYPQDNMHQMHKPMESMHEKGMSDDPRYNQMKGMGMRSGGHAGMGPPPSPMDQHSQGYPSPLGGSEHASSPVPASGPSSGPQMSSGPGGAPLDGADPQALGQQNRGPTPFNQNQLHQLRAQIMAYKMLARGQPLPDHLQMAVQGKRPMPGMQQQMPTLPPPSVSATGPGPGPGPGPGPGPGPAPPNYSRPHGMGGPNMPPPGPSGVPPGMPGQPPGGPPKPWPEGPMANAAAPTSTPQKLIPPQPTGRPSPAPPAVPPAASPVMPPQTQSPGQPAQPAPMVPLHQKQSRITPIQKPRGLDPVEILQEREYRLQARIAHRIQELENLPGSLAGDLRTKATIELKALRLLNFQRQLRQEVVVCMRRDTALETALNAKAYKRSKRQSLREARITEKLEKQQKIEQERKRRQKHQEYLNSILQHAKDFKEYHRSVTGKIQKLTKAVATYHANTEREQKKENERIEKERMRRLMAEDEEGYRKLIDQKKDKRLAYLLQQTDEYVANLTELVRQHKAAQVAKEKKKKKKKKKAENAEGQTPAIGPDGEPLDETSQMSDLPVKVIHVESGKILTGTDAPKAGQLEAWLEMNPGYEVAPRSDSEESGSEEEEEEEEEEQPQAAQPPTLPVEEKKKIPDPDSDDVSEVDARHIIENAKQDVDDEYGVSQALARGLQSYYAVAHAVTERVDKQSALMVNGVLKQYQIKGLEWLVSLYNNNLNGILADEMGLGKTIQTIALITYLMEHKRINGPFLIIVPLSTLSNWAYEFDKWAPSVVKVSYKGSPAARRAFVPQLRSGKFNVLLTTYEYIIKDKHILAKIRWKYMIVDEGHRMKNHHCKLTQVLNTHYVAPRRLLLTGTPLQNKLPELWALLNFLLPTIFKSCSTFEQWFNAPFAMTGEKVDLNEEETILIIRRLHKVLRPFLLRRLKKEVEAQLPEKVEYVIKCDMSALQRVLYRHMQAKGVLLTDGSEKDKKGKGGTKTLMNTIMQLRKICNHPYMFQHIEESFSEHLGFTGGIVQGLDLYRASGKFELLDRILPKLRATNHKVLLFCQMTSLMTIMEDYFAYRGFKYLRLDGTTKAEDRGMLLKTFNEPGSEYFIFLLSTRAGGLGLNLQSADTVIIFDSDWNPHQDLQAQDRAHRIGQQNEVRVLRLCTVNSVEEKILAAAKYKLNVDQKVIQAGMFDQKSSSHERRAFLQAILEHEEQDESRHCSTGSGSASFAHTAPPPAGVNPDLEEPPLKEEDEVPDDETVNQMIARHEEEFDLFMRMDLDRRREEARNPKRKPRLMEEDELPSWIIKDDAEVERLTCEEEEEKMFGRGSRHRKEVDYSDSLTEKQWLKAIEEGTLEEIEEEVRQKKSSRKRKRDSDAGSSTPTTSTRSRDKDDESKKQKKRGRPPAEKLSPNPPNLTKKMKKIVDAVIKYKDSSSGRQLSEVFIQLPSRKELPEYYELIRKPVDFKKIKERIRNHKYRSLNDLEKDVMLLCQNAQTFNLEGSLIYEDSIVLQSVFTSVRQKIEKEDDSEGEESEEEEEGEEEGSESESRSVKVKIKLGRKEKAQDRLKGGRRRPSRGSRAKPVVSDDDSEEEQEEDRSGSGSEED
How it was run: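 MV4-11 cells treated with compound for 24 h, lysed in RIPA with protease/phosphatase inhibitors, and SMARCA2 and SMARCA4 (BRG1) levels assessed by Western blot with β-actin loading control and LI-COR fluorescent read-out. Maximal degradation (Dmax %) after 24 h binned into letter codes.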

[2] = target: T2, SMARCA2 (Homo sapiens, UniProt P51531); assay: MSD SMARCA2 degradation in A549 cell line; settings: for SMARCA2 MSD A549 degradation 24 h: Average Dmax % / DC50: A549 cells; for DC50 / Dmax: 24 h; for DC50: read-out: SMARCA2 MSD A549 degradation 24 h: Average external-Abs DC50; for Dmax: A549, A549 cells
T2 sequence (P51531 whole entry): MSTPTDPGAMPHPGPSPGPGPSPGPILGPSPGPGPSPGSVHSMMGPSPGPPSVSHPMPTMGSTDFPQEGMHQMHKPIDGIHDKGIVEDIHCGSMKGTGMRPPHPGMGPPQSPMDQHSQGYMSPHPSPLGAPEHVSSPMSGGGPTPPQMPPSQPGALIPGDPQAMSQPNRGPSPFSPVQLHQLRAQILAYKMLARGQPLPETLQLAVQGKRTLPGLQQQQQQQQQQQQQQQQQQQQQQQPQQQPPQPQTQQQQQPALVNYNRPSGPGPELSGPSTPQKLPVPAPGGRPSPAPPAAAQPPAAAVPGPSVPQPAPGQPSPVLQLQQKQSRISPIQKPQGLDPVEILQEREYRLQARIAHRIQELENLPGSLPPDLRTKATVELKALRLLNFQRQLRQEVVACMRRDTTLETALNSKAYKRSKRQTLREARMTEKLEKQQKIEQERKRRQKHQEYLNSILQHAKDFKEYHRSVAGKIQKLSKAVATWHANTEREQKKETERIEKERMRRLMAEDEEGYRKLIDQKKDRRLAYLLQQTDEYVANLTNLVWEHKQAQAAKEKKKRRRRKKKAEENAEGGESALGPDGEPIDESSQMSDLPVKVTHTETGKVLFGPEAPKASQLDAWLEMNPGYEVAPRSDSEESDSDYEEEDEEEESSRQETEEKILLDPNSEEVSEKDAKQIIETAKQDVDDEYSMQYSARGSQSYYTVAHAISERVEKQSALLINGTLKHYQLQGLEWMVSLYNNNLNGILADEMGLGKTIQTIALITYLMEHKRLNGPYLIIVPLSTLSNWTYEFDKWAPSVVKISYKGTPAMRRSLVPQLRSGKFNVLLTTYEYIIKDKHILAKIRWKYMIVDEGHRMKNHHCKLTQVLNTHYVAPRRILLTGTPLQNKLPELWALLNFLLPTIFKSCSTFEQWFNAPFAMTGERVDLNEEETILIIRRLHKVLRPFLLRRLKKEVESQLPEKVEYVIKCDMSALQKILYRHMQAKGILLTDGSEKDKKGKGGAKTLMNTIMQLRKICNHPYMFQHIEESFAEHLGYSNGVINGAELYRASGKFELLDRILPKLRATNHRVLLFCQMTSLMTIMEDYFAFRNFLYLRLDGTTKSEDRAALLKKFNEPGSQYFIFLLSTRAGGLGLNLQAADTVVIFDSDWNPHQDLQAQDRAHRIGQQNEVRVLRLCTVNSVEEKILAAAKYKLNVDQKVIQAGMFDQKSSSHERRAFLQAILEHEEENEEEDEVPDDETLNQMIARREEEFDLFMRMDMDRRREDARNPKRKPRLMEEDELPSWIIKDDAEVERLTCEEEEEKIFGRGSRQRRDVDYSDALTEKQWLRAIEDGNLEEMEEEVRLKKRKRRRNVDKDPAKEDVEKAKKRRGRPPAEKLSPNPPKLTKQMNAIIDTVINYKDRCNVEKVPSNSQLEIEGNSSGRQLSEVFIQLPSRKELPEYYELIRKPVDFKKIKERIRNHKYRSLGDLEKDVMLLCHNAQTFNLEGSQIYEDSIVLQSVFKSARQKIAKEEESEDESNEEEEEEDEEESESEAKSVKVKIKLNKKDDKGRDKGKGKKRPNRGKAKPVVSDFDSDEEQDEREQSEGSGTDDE
How it was run: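 A549 cells treated 24 h with compound at final 0.152-1000 nM (3-fold series, DMSO control). Lysates analyzed by MSD immunoassay using anti-SMARCA2/BRM detection and SULFO-TAG secondary antibodies; maximal degradation (Dmax %) reported as letter bins.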

[3] = target: T2, SMARCA2; assay: MSD SMARCA2 degradation in NCI-H1299 cell line (24 h); parameters: HC: NCI-H1299 cells treated with DMSO; host or cells: NCI-H1299; settings: NCI-H1299 cells
How it was run: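 NCI-H1299 cells treated 24 h with a 3-fold, 9-point compound dilution series, then lysed in RIPA with protease inhibitor. SMARCA2 in lysate-coated MSD plates detected with rabbit anti-SMARCA2 (0.3 ug/ml) and SULFO-TAG secondary. Relative SMARCA2 level normalized between DMSO-treated H1299 cells and SMARCA2-negative A2780 cells; Dmax % binned A–D.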

[4] = target: T2, SMARCA2; assay: SMARCA2 Western blot MV4-11 degradation; settings: for SMARCA2 WB MV411 degradation 24 h: Average Dmax % / DC50: MV4-11 cells; for DC50 / Dmax: 24 h; for DC50: read-out: SMARCA2 WB MV411 degradation 24 h: Average external-Abs DC50; for Dmax: MV4-11, MV4-11 cells, read-out: SMARCA2 WB MV411 degradation 24 h: Average Dmax %
Method: Cells were seeded into 6-well plates (MV4-11: 4×10^6 cells/well/1 ml) and 1 ml of 2× compound solution was added into the well to make the final concentration and the plates were mixed well and incubated for 24 hours (No cytotoxicity was observed). The cell were collected with media and spun at 3000 rpm for 5 minutes. The supernatant was aspirated and the well and the cells were washed with cold PBS once and combined for centrifugation again; the supernatant aspirated again. 200 ul pre-chilled RIPAlysis buffer (Boston BioProducts BP-115D) with protease/phosphatase inhibitor (Roche 05892791001/Roche 04906837001) was directly added into the tube to lyze the cells for 20 minutes on ice. The cell lysate were collected into EP tubes and spun at 13000 rpm for 20 minutes and 72 ul supernatant was transferred to a fresh EP tube containing 18 ul of 5× loading buffer (Beyotime Bio P0015) to make the loading samples. The samples were heated to 100° C. for 10 minutes and cooled to RT and microcentrifuged. 20 ul of samples were loaded onto SDS-PAGE gel (Novex, WG1402BOX) and the gel was run at 80 V for 20 minutes and 120 V for 1.5 hours. The samples were electrotransfer to a NC membrane using wet-transfer method with 250 mA for 2.5 hours. The membrane was blocked with LICOR blocking buffer (LI-COR, 927-50000) for 1 hour. The membrane was washed three times with TBST (CST #9997S), 5 minutes each. Incubation was performed with primary antibody prepared in blocking buffer with 0.1% Tween-20 (Solarbio, P8220) at 4° C. overnight (Anti-SMARCA2/BRM antibody (ab15597) 1:500; Anti-BRG1 antibody [EPR3912] (ab108318) 1:1000; Rabbit anti-Baf180 antibody [EPR15860] (Abcam, ab196022) 1:1000; mouse anti-beta-Actin (8H10D10) (CST #3700) 1:10000). The membrane was washed three times with TBST, 5 minutes each. Incubation with secondary antibody was performed for 1 hour at RT (anti-rabbit IgG (Licor, 926-32211) 1:5000; anti-mouse IgG (LI-COR, 926-68070) 1:5000). The membrane was washed three times with TBST, 5 minutes each and lastly the LiCOR was read.
The letter codes for the percentage of SMARCA degradation after 24 hours (Dmax %) include: A (>90% degradation), B (>70-90% degradation), C (50-70% degradation), and D (<50% degradation).

Row | SMILES | SMARCA4 WB MV411 degradation 24 h: Average Dmax % [1] | DC50 [1] [nM] | SMARCA2 MSD A549 degradation 24 h: Average Dmax % [2] | DC50 [2] [nM] | SMARCA2 MSD H1299 degradation 24 h: Dmax % [3] | DC50 ([3]; read-out: SMARCA2 MSD H1299 degradation 24 h: External Abs-DC50) [nM] | SMARCA2 WB MV411 degradation 24 h: Average Dmax % [4] | DC50 [4] [nM] | Dmax [1] [%] | Dmax [2] [%] | Dmax [4] [%]
1 | Cc1ncsc1-c1ccc(CNC(=O)[C@@H]2C[C@@H](O)CN2C(=O)[C@@H](NC(=O)[C@H]2CC3(C2)C[C@H](N2CCC(n4cc(-c5cc(-c6ccccc6O)nnc5N)cn4)CC2)C3)C(C)(C)C)cc1 (some centres unmarked) [I-390] | D (D (<50% degradation)) | < 100 | B (B (>70-90% degradation)) | 100 to 500 | C (C (50-70 degradation)) | 501 to 1000 | B (B (>70-90% degradation)) | < 100 |  |  | 
2 | Cc1ncsc1-c1ccc(CNC(=O)[C@@H]2C[C@@H](O)CN2C(=O)[C@@H](NC(=O)C23CCC(CN4CCC(n5cc(-c6cc(-c7ccccc7O)nnc6N)cn5)CC4)(CC2)CC3)C(C)(C)C)cc1 [I-428] |  | 100 to 500 |  | 100 to 500 |  |  |  | < 100 | 70 to 90 | > 90 | > 90
3 | CC(=O)Nc1cc(-c2scnc2C)ccc1CNC(=O)[C@@H]1C[C@@H](O)CN1C(=O)[C@@H](NC(=O)[C@H]1CC[C@H](c2cnc(N3C4CCC3CN(c3cc(-c5ccccc5O)nnc3N)C4)nc2)CC1)C(C)(C)C [I-430, (2S,4R)—N-(2-acetamido-4-(4-methylthiazol-5-yl)benzyl)-1-((2S)-2-((1r,4S)-4-(2-(3-(3-amino-6-(2-hydroxyphenyl)pyridazin-4-yl)-3,8-diazabicyclo [3.2.1]octan-8-yl)pyrimidin-5-yl)cyclohexanecarboxamido)-3,3-dimethylbutanoyl)-4-hydroxypyrrolidine-2-carboxamide] |  | < 100 |  | < 100 |  |  |  | < 100 | > 90 | > 90 | > 90
4 | Cc1ncsc1-c1ccc(CNC(=O)[C@@H]2C[C@@H](O)CN2C(=O)[C@@H](NC(=O)[C@H]2CC[C@H](c3cnc(N4C5CCC4CN(c4cc(-c6ccccc6O)nnc4N)C5)nc3)CC2)C(C)(C)C)c(C(=O)N(C)C)c1 [I-431] |  | < 100 |  | < 100 |  |  |  | < 100 | > 90 | > 90 | > 90
5 | Cc1ncsc1-c1ccc(CNC(=O)[C@@H]2C[C@@H](O)CN2C(=O)[C@@H](NC(=O)[C@H]2CC3(C2)C[C@H](c2ccc(CN4CCC(Cn5cc(-c6cc(-c7ccccc7O)nnc6N)cn5)CC4)cc2)C3)C(C)(C)C)cc1 (some centres unmarked) [I-433] | C (C (50-70% degradation)) | < 100 |  | < 100 |  |  |  | < 100 |  | > 90 | > 90
6 | Cc1ncsc1-c1ccc(CNC(=O)[C@@H]2C[C@@H](O)CN2C(=O)[C@@H](NC(=O)[C@H]2C[C@@]3(C2)C[C@H](c2ccc(CN4CCC(Cn5cc(-c6cc(-c7ccccc7O)nnc6N)cn5)CC4)cc2)C3)C(C)(C)C)cc1 (some centres unmarked) [I-434] | A (A (>90% degradation)) | < 100 | A (A (>90% degradation)) | < 100 |  |  | A (A (>90% degradation)) | < 100 |  |  | 
7 | Cc1ncsc1-c1ccc(CNC(=O)[C@@H]2C[C@@H](O)CN2C(=O)[C@@H](NC(=O)[C@H]2CC[C@H](Cc3ccc(-c4cnc(N5C6CCC5CN(c5cc(-c7ccccc7O)nnc5N)C6)nc4)cc3)CC2)C(C)(C)C)cc1 [I-437] |  | 100 to 500 |  | < 100 |  |  |  | < 100 | > 90 | > 90 | > 90
8 | Cc1ncsc1-c1ccc([C@H](C)NC(=O)[C@@H]2C[C@@H](O)CN2C(=O)[C@@H](NC(=O)[C@H]2CC[C@H](c3cnc(N4C5CCC4CN(c4cc(-c6ccccc6O)nnc4N)C5)nc3)CC2)C(C)(C)C)cc1 [I-438] |  | < 100 |  | < 100 |  |  |  | < 100 | > 90 | > 90 | > 90
9 | Cc1ncsc1-c1ccc(C2(NC(=O)[C@@H]3C[C@@H](O)CN3C(=O)[C@@H](NC(=O)[C@H]3CC[C@H](c4cnc(N5C6CCC5CN(c5cc(-c7ccccc7O)nnc5N)C6)nc4)CC3)C(C)(C)C)CC2)cc1 [I-439] |  | < 100 |  | < 100 |  |  |  | < 100 | > 90 | > 90 | > 90
10 | Cc1ncsc1-c1ccc(CNC(=O)[C@@H]2C[C@@H](O)CN2C(=O)[C@@H](NC(=O)C2CCC(c3cnc(N4C5CCC4CN(c4cc(-c6ccccc6O)nnc4N)C5)nc3)CC2C)C(C)(C)C)cc1 (some centres unmarked) [I-444] |  | < 100 |  | 501 to 1000 |  |  |  | < 100 |  |  | 
11 | Cc1ncsc1-c1ccc(CNC(=O)[C@@H]2C[C@@H](O)CN2C(=O)[C@@H](NC(=O)C2CC(N3CCC(n4cc(-c5cc(-c6ccccc6O)nnc5N)cn4)CC3)C2)C(C)(C)C)cc1 (some centres unmarked) [I-484] |  | 100 to 500 |  | 100 to 500 |  |  |  | < 100 | 70 to 90 | 70 to 90 | > 90
12 | Cc1ncsc1-c1ccc(CNC(=O)[C@@H]2C[C@@H](O)CN2C(=O)[C@@H](NC(=O)[C@H]2CC[C@H](CN(C)Cc3cnc(N4C5CCC4CN(c4cc(-c6ccccc6O)nnc4N)C5)nc3)CC2)C(C)(C)C)cc1 [I-486] |  | 100 to 500 |  | 100 to 500 |  |  |  | < 100 | 50 to 70 | > 90 | > 90
13 | Cc1ncsc1-c1ccc(CNC(=O)[C@@H]2C[C@@H](O)CN2C(=O)[C@@H](NC(=O)C2CCC(c3cnc(N4C5CCC4CN(c4cc(-c6ccccc6O)nnc4N)C5)nc3)CC2)C(C)(C)C)cc1 (some centres unmarked) [I-503] |  | < 100 |  | < 100 |  |  |  | < 100 | > 90 | > 90 | > 90
14 | Cc1ncsc1-c1ccc(CNC(=O)[C@@H]2C[C@@H](O)CN2C(=O)[C@@H](NC(=O)CN2C3CCC2CC(c2cnc(N4C5CCC4CN(c4cc(-c6ccccc6O)nnc4N)C5)nc2)C3)C(C)(C)C)cc1 (some centres unmarked) [I-509] |  | > 1000 |  | 100 to 500 |  |  |  | < 100 | 70 to 90 | > 90 | 70 to 90
15 | Cc1ncsc1-c1ccc(CNC(=O)[C@@H]2C[C@@H](O)CN2C(=O)[C@@H](NC(=O)c2ccc(N3CC(n4cc(-c5cc(-c6ccccc6O)nnc5N)cn4)C3)cc2)C(C)(C)C)cc1 [I-514] |  | < 100 |  | 100 to 500 |  |  |  | < 100 | > 90 | > 90 | > 90
16 | Cc1ncsc1-c1ccc(CNC(=O)[C@@H]2C[C@@H](O)CN2C(=O)[C@@H](NC(=O)CN2CCC(c3cnc(N4C5CCC4CN(c4cc(-c6ccccc6O)nnc4N)C5)nc3)CC2)C(C)(C)C)c(C(F)(F)F)c1 [I-522] |  | > 1000 |  | 100 to 500 |  |  |  | < 100 | 70 to 90 | 70 to 90 | > 90
